Test system: R-FSL-1-induced IL-1β and TNF-α secretion in bone marrow-derived macrophages
Experiment: IL-1β and TNF-α secretion in bone marrow-derived macrophages (BMDM) stimulated with R-FSL-1
Format: cell-based, mice
Settings: murine BMDM primed with LPS, 10^−6 to 10^−11 M
Source text: Bone marrow-derived macrophages isolation and purification. Bone marrow-derived macrophages (BMDM) were isolated from the tibia and femur of 4-month-old C57Bl/6 mice. Mice were euthanized in a CO2 chamber individually. Tibia and femur were dissected from dead mice after removing the skin and the muscles and stored in cold DMEM before use. The bones are placed in Petri dishes containing sterile PBS and immersed in ice. In a laminar flow of culture, bones are immersed in 70% ethanol for one minute, and then rinsed in sterile PBS. Bones were cut in 2 pieces using sterile forceps and scissors and put in pierced 0.6 mL tubes which were put in 2 mL centrifuge tubes containing 200 μL of DMEM. After 1 min of centrifugation at 6500 RPM, pellets of bone marrow cells were gently resuspended and pooled in a 50 mL tube. Cells were counted and monocytes were purified from the bone marrow cells using the EasySep™ Mouse Monocyte Isolation Kit (StemCell Technologies, #19861) according to the manufacturer instructions. […] Statistical significance of data was analyzed by analysis of variance (ANOVA) with post-hoc comparisons using Dunnett's test with statistical software package (Graph Pad Prism version 7.0). […]

C=CCN1CC#CCN(NC(=O)[C@H](C)N)C(=O)N[C@H](Cc2c[nH]c3ccccc23)C(=O)N[C@@H](C)C(=O)N[C@@H](Cc2c[nH]c3ccccc23)C(=O)N[C@H](Cc2ccccc2)C(=O)N[C@H](C(N)=O)CCCC1 [MPE-298]
secretion of IL-1β induced by R-FSL-1: able to inhibit | secretion of TNF-α induced by R-FSL-1: able to inhibit
